IC50 and CC50 data for six compounds are collected here from patent publication US20260250262A1, “NEW COMPOUND AND PHARMACEUTICAL COMPOSITION COMPRISING SAME” (SAMJIN PHARMACEUTICAL CO., LTD., priority 2023, published 2026).

pIC50: −log10 of the molar value. Bounds are passed on as bounds.

Assay [1] has as its target T1, Recombinant NAMPT protein (Homo sapiens, UniProt P43490).
T1 construct: purchased BPS bioscience #7176-1
Put plainly: NAMPT enzyme inhibition assay (BPS Bioscience NAMPT Inhibitor Screening Assay Kit). It counts as biochemical. To be noted: 30 min pre-incubation, 2 h at 30° C., fluorescence. How it is done: Recombinant NAMPT protein was added to each well of a black 96-well plate, and dilution buffer was added to a blank well instead of NAMPT protein. A 5× concentrated compound solution was added and pre-incubated at room temperature (approximately 22° C.) for 30 minutes before the start of the reaction so that the compound and protein might bind before the enzyme reaction. At this time, the concentration of NAMPT protein was adjusted and used according to the enzyme activity of each protein lot within the final concentration range of 4-10 ng/μl, and the test compound was serially diluted at a ratio of 1:3 from 1000 nM to 1 nM, and experiments were conducted with n=2 for about seven concentrations. […] The NAMPT enzyme activity (%) was calculated by subtracting the measurement value of the blank well without NAMPT protein from the measurement value of all wells, and then taking the measurement value of the control well without the compound as 100%.

Another assay has as its system HCT-116 cell lines. Put plainly: Cellular NAD measurement assay (NAD/NADH-Glo). It counts as cell-based. To be noted: Homo sapiens; HCT-116, 24 hours treatment, intracellular NAD+/NADH level. How it is done:
With regard to HCT-116 cell lines, the decrease in intracellular NAD+ and NADH levels due to the inhibition of NAMPT enzyme activity by compounds was evaluated using NAD/NADH-Glo™ Assay (Promega, G9072) from Promega. The cells were incubated using DMEM (Gibco, 11995-065) medium containing 10% FBS. The HCT-116 cells were incubated for 24 hours after being distributed at a density of 2,500 cells per well in a 96-well plate, and were treated with the drugs using serum-free DMEM. First, the compounds were dissolved in 100% dimethyl sulfoxide (DMSO), and then diluted in the culture medium so that the final concentration of DMSO might reach 0.5%, and treated with the drugs. The final concentration range of the compounds was 0.1 nM to 100 nM. After that, they were further incubated for 24 hours under conditions of 37° C. and CO2 5%. To conduct the NAD/NADH-Glo™ Assay, the culture medium of drug-treated cells was removed, 50 μL of DPBS was treated per well, and left at room temperature for five minutes. The required amount of NAD/NADH-Glo™ Detection Reagent (Reconstituted Luciferin Detection Reagent 1 mL, Reductase 5 μL, Reductase Substrate 5 μL, NAD Cycling Enzyme 5 μL, NAD Cycling Substrate 25 μL) was prepared according to the manufacturer's manual and treated in an amount of 50 μL per well. After incubating for two minutes at 400 rpm in a plate shaker for cell lysis, the cells were incubated for 30 minutes at room temperature, and luminescence was measured. NAD+/NADH levels were calculated by subtracting the measurement value of the blank well without cells from the measurement value of all wells and taking the 0.5% DMSO-treated control as 100%.

The test system of assay [2] is HCT-116 (colorectal cancer). In words: Tumor cytotoxicity assay (MTT), HCT-116. It counts as cell-based. Particulars: Homo sapiens, HCT-116, 72 hours. On the procedure: (§1) First, the compounds were prepared in 100% dimethyl sulfoxide (DMSO) at concentrations of 0.02 μM to 200 μM, and then diluted in the culture medium so that the final concentration of DMSO might reach 0.5%, and treated with the drugs. The final concentration range of the compounds was 0.1 nM to 1000 nM. After that, they were further incubated for 72 hours under conditions of 37° C. and CO2 5%. […] The cell viability (%) was relatively determined by subtracting the reference 650 nm optical density (O.D.) from the 570 nm O.D., and the 0.5% DMSO-treated control was set as 100% as the standard.

The next assay has as its system NCI-N87 (gastric cancer). Put plainly: Tumor cytotoxicity assay (MTT), NCI-N87. It counts as cell-based. To be noted: Homo sapiens, NCI-N87, 72 hours. How it is done:
as §1

T1 sequence (P43490 whole entry): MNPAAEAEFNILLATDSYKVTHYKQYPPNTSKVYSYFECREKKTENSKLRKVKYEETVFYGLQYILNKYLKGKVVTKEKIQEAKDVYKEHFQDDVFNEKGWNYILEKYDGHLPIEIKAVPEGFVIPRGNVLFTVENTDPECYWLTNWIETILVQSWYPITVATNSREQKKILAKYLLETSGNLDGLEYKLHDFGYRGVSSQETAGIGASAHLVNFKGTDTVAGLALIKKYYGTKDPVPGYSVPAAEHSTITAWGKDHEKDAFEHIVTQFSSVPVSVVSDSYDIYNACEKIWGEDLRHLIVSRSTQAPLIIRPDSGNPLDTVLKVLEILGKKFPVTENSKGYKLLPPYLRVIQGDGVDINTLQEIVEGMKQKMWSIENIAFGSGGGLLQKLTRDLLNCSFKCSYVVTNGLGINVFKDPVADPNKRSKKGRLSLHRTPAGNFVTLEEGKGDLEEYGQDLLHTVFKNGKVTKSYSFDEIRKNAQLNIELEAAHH

For orientation: pIC50 means the negative decadic logarithm of the IC50, by convention in mol/L. The term CC50 denotes the concentration at which the toxic effect on the cells reaches its halfway point. A low value points to greater toxicity to the cells. For the compound `O=C(NCc1ccn2ccnc2c1)Nc1ccc(-c2ccncc2)c(C#Cc2ccc(F)cc2)c1` [Compound 4, 1-(3-((4-fluorophenyl)ethynyl)-4-(pyridin-4-yl)phenyl)-3-(imidazo[1,2-a]pyridin-7-ylmethyl)urea], the pIC50 is more than 6.30 in assay [1] and not below 8.00 with HCT-116 cell lines. Further, the CC50 (in assay [2]; in the assay with NCI-N87 (gastric cancer)) was less than 30 nM each time.

As for `O=C(NCCc1cccnc1)Nc1ccc(-c2ccc(N3CCNCC3)cc2)c(C#Cc2ccc(F)cc2)c1` [Compound 13, 1-(2-((4-fluorophenyl)ethynyl)-4′-(piperazin-1-yl)-[1,1′-biphenyl]-4-yl)-3-(2-(pyridin-3-yl)ethyl)urea], the pIC50 in assay [1] was more than 6.30; in the assay on HCT-116 cell lines it was not below 8.00. Moreover, the CC50 (in assay [2]; in the assay with NCI-N87 (gastric cancer)) was less than 30 nM each time.

Turning to `Cc1nc2cc(-c3ccc(NC(=O)NCCc4cccnc4)cc3C#Cc3ccc(F)cc3)ccc2c(=O)[nH]1` [Compound 14], the negative-log IC50 (pIC50) in assay [1] was more than 6.30; with HCT-116 cell lines, not below 8.00. In addition, the CC50 (in assay [2]; with NCI-N87 (gastric cancer)) was less than 30 nM each time.

`O=C(NCCc1cccnc1)Nc1ccc(-c2ccncc2)c(C#Cc2ccc(C(=O)NCCN3CCNCC3)cc2)c1` [Compound 47]: the results for the negative-log IC50 (pIC50) (in assay [1]; in the assay on HCT-116 cell lines) were more than 6.30 and 6.00 to 8.00, respectively. Besides, the values for the 50% cytotoxic concentration (CC50) (in assay [2]; with NCI-N87 (gastric cancer)) were less than 30 nM and 30 to 100 nM, respectively.

With `Cc1nc2cc(-c3ccc(NC(=O)NCCc4cccnc4)cc3C#Cc3ccc(F)cc3)ccc2c(=O)n1CCN` [Compound 186], the results for the pIC50 (in assay [1]; with HCT-116 cell lines) were more than 6.30 and not below 8.00, respectively. Moreover, the CC50 in assay [2] was less than 30 nM; in the assay on NCI-N87 (gastric cancer) it was 30 to 100 nM.

`O=C(NCc1ccn2ccnc2c1)Nc1ccc(-c2ccncc2)c(C#Cc2ccc(C3CCNCC3)cc2)c1` [Compound 187]: the pIC50 was more than 6.30 in assay [1] and not below 8.00 in the assay on HCT-116 cell lines. Moreover, the half-maximal cytotoxic concentration (CC50) (in assay [2]; with NCI-N87 (gastric cancer)) was less than 30 nM in each case.
